pIC50: −log10 of the molar value. Active and inactive are the calls of the source. The calls are words filed in the database; no cut-off is given here.
biological target: Glycogen synthase kinase-3 beta (Homo sapiens, UniProt P49841); assay: Inhibition of GSK3beta (unknown origin) incubated for 20 mins in presence of 33P-ATP; conditions: not given
Sequence (P49841 whole entry): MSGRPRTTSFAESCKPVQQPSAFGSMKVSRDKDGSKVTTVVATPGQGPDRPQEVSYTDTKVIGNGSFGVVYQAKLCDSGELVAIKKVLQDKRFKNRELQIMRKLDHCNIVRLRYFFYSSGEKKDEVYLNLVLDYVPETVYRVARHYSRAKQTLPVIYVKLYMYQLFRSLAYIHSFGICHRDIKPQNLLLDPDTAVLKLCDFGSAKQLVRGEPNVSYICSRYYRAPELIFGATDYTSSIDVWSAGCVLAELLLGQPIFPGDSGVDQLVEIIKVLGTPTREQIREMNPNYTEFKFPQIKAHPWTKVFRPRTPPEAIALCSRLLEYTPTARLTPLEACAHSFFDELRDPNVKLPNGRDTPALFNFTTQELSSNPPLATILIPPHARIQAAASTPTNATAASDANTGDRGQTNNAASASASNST

How did the pIC50 turn out when `CCOC(=O)C1Cc2nc(-c3ccc(Cl)c(Cl)c3)n(-c3ccnc(N[C@H]4CCCN(C(=O)C5CC5)C4)n3)c2C1` (stereo not given in full) was run?
The pIC50 was 5.31.

`NC(=O)C1Cc2nc(-c3ccc(Cl)c(Cl)c3)n(-c3ccnc(N[C@H]4CCCN(C(=O)C5CC5)C4)n3)c2C1` (stereo not given in full) was tested. Which pIC50 did it give?
The pIC50 was 5.41.

How did the pIC50 turn out when `CCOC(=O)C1Cc2nc(-c3ccc(Cl)c(Cl)c3)n(-c3ccnc(N[C@@H]4CCCN(C(=O)C5CC5)C4)n3)c2C1` (stereo not given in full) was run?
Its pIC50 is 6.71.

biological target: T1, Mitogen-activated protein kinase 14 (Homo sapiens, UniProt Q16539); assay: Inhibition of p38alpha (unknown origin) incubated for 20 mins in presence of 33P-ATP; conditions: not given
T1 sequence (Q16539 whole entry): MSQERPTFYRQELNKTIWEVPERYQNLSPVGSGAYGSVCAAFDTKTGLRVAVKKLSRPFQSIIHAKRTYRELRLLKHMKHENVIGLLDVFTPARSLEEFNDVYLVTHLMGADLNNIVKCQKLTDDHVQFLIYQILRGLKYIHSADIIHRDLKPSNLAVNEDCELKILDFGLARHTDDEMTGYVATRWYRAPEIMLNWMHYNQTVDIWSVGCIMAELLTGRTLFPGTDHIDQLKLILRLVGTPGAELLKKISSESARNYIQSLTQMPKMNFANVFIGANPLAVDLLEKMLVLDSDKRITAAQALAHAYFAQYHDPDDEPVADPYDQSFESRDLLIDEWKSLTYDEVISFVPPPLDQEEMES

How did the pIC50 turn out when `CCOC(=O)C1Cc2nc(-c3ccc(Cl)c(Cl)c3)n(-c3ccnc(N[C@H]4CCCN(C(=O)C5CC5)C4)n3)c2C1` (stereo not given in full) was run?
Its pIC50 is 6.54.

With `NC(=O)C1Cc2nc(-c3ccc(Cl)c(Cl)c3)n(-c3ccnc(N[C@H]4CCCN(C(=O)C5CC5)C4)n3)c2C1` (stereo not given in full) as the compound, how does the pIC50 read?
The pIC50 was 6.67.

`CCOC(=O)C1Cc2nc(-c3ccc(Cl)c(Cl)c3)n(-c3ccnc(N[C@@H]4CCCN(C(=O)C5CC5)C4)n3)c2C1` (stereo not given in full) was tested. Which pIC50 did it give?
Its pIC50 is 7.27.

biological target: Mitogen-activated protein kinase 10 (Rattus norvegicus) (UniProt P49187); assay: Inhibition of JNK3 in primary rat cortex neuron cells assessed as reduction in Abeta1-42 induced APP phosphorylation by Western blotting analysis; assay type: cell-based; conditions: Primary cortical neuron
Sequence (P49187 whole entry): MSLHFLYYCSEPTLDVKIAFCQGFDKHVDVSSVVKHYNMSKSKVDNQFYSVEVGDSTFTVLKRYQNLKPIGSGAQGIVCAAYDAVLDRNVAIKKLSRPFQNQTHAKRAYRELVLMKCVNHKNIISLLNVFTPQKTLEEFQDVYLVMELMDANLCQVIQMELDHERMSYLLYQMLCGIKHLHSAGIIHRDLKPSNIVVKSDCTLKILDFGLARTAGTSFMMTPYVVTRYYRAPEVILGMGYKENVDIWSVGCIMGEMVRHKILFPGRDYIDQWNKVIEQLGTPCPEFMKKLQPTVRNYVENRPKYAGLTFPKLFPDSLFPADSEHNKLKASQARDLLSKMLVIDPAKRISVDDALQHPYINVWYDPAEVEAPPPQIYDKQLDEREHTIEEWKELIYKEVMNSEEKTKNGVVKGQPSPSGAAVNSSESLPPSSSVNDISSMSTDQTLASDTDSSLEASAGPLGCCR

With `NC(=O)C1Cc2nc(-c3ccc4ccccc4c3)n(-c3ccnc(N[C@H]4CCCN(C(=O)C5CC5)C4)n3)c2C1` (stereo not given in full) as the compound, how does the inhibition read?
The inhibition was “Active”.

With `NC(=O)C1Cc2nc(-c3ccc(Cl)c(Cl)c3)n(-c3ccnc(N[C@H]4CCCN(C(=O)C5CC5)C4)n3)c2C1` (stereo not given in full) as the compound, how does the inhibition read?
Its inhibition is “Active”.

biological target: T2, Mitogen-activated protein kinase 9 (Homo sapiens, UniProt P45984); assay: Inhibition of JNK2 (unknown origin) at 1 uM relative to control; conditions: not given
Target sequence in this assay (P45984 whole entry, looked up): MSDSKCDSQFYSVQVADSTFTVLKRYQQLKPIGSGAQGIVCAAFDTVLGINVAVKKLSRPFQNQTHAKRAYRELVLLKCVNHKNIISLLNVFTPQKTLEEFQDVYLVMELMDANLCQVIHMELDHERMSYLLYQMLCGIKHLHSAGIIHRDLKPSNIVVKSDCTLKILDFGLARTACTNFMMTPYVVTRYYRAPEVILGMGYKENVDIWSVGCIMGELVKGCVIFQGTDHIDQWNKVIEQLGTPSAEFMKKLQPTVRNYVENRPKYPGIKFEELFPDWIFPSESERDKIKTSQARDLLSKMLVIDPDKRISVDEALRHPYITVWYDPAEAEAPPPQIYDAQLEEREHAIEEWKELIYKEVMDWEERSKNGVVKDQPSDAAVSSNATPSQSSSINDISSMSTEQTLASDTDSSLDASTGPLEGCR

With `NC(=O)C1Cc2nc(-c3ccc(Cl)c(Cl)c3)n(-c3ccnc(N[C@H]4CCCN(C(=O)C5CC5)C4)n3)c2C1` (stereo not given in full) as the compound, how does the inhibition read?
The inhibition was 80%.

biological target: Mitogen-activated protein kinase 10 (Rattus norvegicus) (UniProt P49187); assay: Inhibition of JNK3 in primary rat cortex neuron cells assessed as reduction in Abeta1-42 induced c-Jun phosphorylation by Western blotting analysis; assay type: cell-based; conditions: Primary cortical neuron

For `NC(=O)C1Cc2nc(-c3ccc4ccccc4c3)n(-c3ccnc(N[C@H]4CCCN(C(=O)C5CC5)C4)n3)c2C1` (stereo not given in full), which inhibition is on record?
Its inhibition is “Active”.

With `NC(=O)C1Cc2nc(-c3ccc(Cl)c(Cl)c3)n(-c3ccnc(N[C@H]4CCCN(C(=O)C5CC5)C4)n3)c2C1` (stereo not given in full) as the compound, how does the inhibition read?
Its inhibition is “Active”.

biological target: T1, Mitogen-activated protein kinase 14; assay: Inhibition of p38alpha (unknown origin) at 1 uM relative to control; conditions: not given

Which inhibition does the source give for `NC(=O)C1Cc2nc(-c3ccc(Cl)c(Cl)c3)n(-c3ccnc(N[C@H]4CCCN(C(=O)C5CC5)C4)n3)c2C1` (stereo not given in full) here?
The inhibition was 80%.

biological target: T3, Mitogen-activated protein kinase 10 (Homo sapiens, UniProt P53779); assay: Inhibition of JNK3 (unknown origin) at 1 uM relative to control; conditions: not given
T3 sequence (P53779 whole entry): as the sequence (P49187 whole entry) above, with H27Q, S32Y, V33I, V34A counted along it

How did the inhibition turn out when `NC(=O)C1Cc2nc(-c3ccc(Cl)c(Cl)c3)n(-c3ccnc(N[C@H]4CCCN(C(=O)C5CC5)C4)n3)c2C1` (stereo not given in full) was run?
The inhibition was 100%.

biological target: T4, Mitogen-activated protein kinase 8 (Homo sapiens, UniProt P45983); assay: Inhibition of JNK1 (unknown origin) at 1 uM relative to control; conditions: not given
T4 sequence (P45983 whole entry): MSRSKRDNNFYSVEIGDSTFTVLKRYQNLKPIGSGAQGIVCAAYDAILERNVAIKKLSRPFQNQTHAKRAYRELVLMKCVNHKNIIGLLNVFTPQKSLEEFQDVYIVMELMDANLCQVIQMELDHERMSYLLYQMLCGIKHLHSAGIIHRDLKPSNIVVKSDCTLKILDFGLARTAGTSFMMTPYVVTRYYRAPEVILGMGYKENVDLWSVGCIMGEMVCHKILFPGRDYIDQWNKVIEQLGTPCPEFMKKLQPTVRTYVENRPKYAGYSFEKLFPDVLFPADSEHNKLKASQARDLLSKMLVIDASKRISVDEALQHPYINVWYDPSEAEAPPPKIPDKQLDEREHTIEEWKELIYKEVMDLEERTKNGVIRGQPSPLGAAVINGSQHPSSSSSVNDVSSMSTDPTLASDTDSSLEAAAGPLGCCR

Which inhibition does the source give for `NC(=O)C1Cc2nc(-c3ccc(Cl)c(Cl)c3)n(-c3ccnc(N[C@H]4CCCN(C(=O)C5CC5)C4)n3)c2C1` (stereo not given in full) here?
The inhibition was 80%.

biological target: T2, Mitogen-activated protein kinase 9; assay: Inhibition of JNK2 (unknown origin) incubated for 20 mins in presence of 33P-ATP; conditions: not given
Target sequence in this assay (P45984 whole entry): as the sequence (P45984 whole entry, looked up) above

`CCOC(=O)C1Cc2nc(-c3ccc(Cl)c(Cl)c3)n(-c3ccnc(N[C@H]4CCCN(C(=O)C5CC5)C4)n3)c2C1` (stereo not given in full) was tested. Which pIC50 did it give?
The pIC50 was 7.83.

How did the pIC50 turn out when `NC(=O)C1Cc2nc(-c3ccc(Cl)c(Cl)c3)n(-c3ccnc(N[C@H]4CCCN(C(=O)C5CC5)C4)n3)c2C1` (stereo not given in full) was run?
The pIC50 was 7.53.

`CCOC(=O)C1Cc2nc(-c3ccc(Cl)c(Cl)c3)n(-c3ccnc(N[C@@H]4CCCN(C(=O)C5CC5)C4)n3)c2C1` (stereo not given in full) was tested. Which pIC50 did it give?
The pIC50 was 8.07.

biological target: T4, Mitogen-activated protein kinase 8; assay: Inhibition of JNK1 (unknown origin) incubated for 20 mins in presence of 33P-ATP; conditions: not given

With `CCOC(=O)C1Cc2nc(-c3ccc(Cl)c(Cl)c3)n(-c3ccnc(N[C@H]4CCCN(C(=O)C5CC5)C4)n3)c2C1` (stereo not given in full) as the compound, how does the pIC50 read?
The pIC50 was 6.80.

How did the pIC50 turn out when `NC(=O)C1Cc2nc(-c3ccc(Cl)c(Cl)c3)n(-c3ccnc(N[C@H]4CCCN(C(=O)C5CC5)C4)n3)c2C1` (stereo not given in full) was run?
The pIC50 was 7.08.

With `CCOC(=O)C1Cc2nc(-c3ccc(Cl)c(Cl)c3)n(-c3ccnc(N[C@@H]4CCCN(C(=O)C5CC5)C4)n3)c2C1` (stereo not given in full) as the compound, how does the pIC50 read?
The pIC50 was 7.08.

biological target: T3, Mitogen-activated protein kinase 10; assay: Inhibition of JNK3 (unknown origin) using ATF2 as substrate incubated for 40 mins in presence of [gamma33P]ATP by scintillation counting analysis; conditions: not given

`CCOC(=O)C1Cc2nc(-c3ccc(F)c(C(F)(F)F)c3)n(-c3ccnc(N[C@@H]4CCCN(C(=O)C5CC5)C4)n3)c2C1` (stereo not given in full) was tested. Which pIC50 did it give?
Its pIC50 is 7.18.

With `CCOC(=O)C1Cc2nc(-c3ccc4c(c3)OCO4)n(-c3ccnc(N[C@H]4CCN(C(=O)C5CC5)C4)n3)c2C1` (stereo not given in full) as the compound, how does the pIC50 read?
Its pIC50 is 6.61.

How did the pIC50 turn out when `CCOC(=O)C1Cc2nc(-c3ccc4c(c3)OCO4)n(-c3ccnc(N[C@@H]4CCN(C(=O)C5CC5)C4)n3)c2C1` (stereo not given in full) was run?
Its pIC50 is 7.30.

With `NC(=O)C1Cc2nc(-c3ccc4ccccc4c3)n(-c3ccnc(N[C@H]4CCCN(C(=O)C5CC5)C4)n3)c2C1` (stereo not given in full) as the compound, how does the pIC50 read?
The pIC50 was 8.75.

How did the pIC50 turn out when `CCOC(=O)C1Cc2nc(-c3ccc(Cl)c(Cl)c3)n(-c3ccnc(N[C@H]4CCCN(C(=O)C5CC5)C4)n3)c2C1` (stereo not given in full) was run?
The pIC50 was 8.95.

How did the pIC50 turn out when `NC(=O)C1Cc2nc(-c3ccc(Cl)c(Cl)c3)n(-c3ccnc(N[C@H]4CCCN(C(=O)C5CC5)C4)n3)c2C1` (stereo not given in full) was run?
Its pIC50 is 9.42.

With `CCOC(=O)C1Cc2nc(-c3ccc(Cl)c(Cl)c3)n(-c3ccnc(N[C@@H]4CCCN(C(=O)C5CC5)C4)n3)c2C1` (stereo not given in full) as the compound, how does the pIC50 read?
The pIC50 was 9.22.

test system: Cortical neurone; assay: cells; conditions: Rattus norvegicus, 120 h, read-out: Activity

With `NC(=O)C1Cc2nc(-c3ccc4ccccc4c3)n(-c3ccnc(N[C@H]4CCCN(C(=O)C5CC5)C4)n3)c2C1` (stereo not given in full) as the compound, how does the viability at 10 µM read?
The viability at 10 µM was 58.5%.

For `CCOC(=O)C1Cc2nc(-c3ccc(Cl)c(Cl)c3)n(-c3ccnc(N[C@H]4CCCN(C(=O)C5CC5)C4)n3)c2C1` (stereo not given in full), which viability at 10 µM is on record?
Its viability at 10 µM is 63.2%.

For `NC(=O)C1Cc2nc(-c3ccc(Cl)c(Cl)c3)n(-c3ccnc(N[C@H]4CCCN(C(=O)C5CC5)C4)n3)c2C1` (stereo not given in full), which viability at 10 µM is on record?
The viability at 10 µM was 62.9%.

— ChEMBL document CHEMBL5385856, “Novel 1,4,5,6-tetrahydrocyclopenta[d]imidazole-5-carboxamide-based JNK3 inhibitors: Design, synthesis, molecular docking, and therapeutic potential in neurodegenerative diseases” (Eur J Med Chem, 2023)
